Among the data in patent publication US8420630B2 (Boehringer Ingelheim Pharma GmbH & Co. KG, priority 2001, dated 2013) are IC50 values, retold here.

One test deals with T1, CDK1/cyclinB1 (Homo sapiens, UniProt P06493).
T1 construct: made in house; host or cells: High Five insect cells (Trichoplusia ni), baculovirus coinfection
T1 sequence (P06493 whole entry): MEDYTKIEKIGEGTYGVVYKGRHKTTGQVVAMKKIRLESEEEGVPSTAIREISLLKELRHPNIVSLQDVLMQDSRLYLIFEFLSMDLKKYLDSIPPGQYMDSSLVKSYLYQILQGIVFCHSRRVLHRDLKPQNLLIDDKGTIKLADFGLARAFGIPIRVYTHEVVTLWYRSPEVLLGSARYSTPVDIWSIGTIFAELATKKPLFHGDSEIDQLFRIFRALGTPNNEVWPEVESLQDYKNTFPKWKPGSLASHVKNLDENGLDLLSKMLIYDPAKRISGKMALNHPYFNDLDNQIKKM
T1 sequence (P14635 whole entry partner): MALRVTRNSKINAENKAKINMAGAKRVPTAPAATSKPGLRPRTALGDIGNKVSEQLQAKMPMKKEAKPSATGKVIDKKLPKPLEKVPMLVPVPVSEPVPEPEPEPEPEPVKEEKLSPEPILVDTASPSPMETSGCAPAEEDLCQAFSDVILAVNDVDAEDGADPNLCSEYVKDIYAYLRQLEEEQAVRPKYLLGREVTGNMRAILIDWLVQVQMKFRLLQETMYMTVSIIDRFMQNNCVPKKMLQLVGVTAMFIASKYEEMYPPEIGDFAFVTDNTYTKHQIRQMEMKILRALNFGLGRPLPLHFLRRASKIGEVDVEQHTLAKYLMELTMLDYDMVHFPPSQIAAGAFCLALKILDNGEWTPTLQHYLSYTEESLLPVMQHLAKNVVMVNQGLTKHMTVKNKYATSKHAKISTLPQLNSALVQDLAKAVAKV
The test is described as follows: Cyclin B1-CDK1 kinase inhibition test.
Settings: not given
The class given is biochemical. On the procedure: CDK4) were cloned by standard methods using RT-PCR, and cloned into a transfer vector (cyclin in pAcG2T made by Pharmingen, CDKs in p2Bac made by Invitrogen) for the baculovirus system. […] After thawing the cells were resuspended in lysing buffer (50 mM HEPES pH 7.5, 10 mM MgCl2, 1 mM DTT, 5 μg/ml leupeptin, 5 μg/ml aprotinin, 100 μM NaF, 100 μM PMSF, 10 mM β-glycerolphosphate, 100 μM Na3VO4, 30 mM nitrophenylphosphate, 17.5 ml of lysing buffer per 10^8 cells) and incubated on ice for 30 min. […] Cyclin D1-CDK4 was purified by means of a GST-tag on cyclin D1 and then using glutathione beads (total protein about 0.2 mg/ml). All the kinase tests were carried out in 96-well microtitre plates (Greiner PS) in a final volume of 60 μl. […] As a negative control the kinase reaction was carried out in the absence of the substrate histone H1. As a positive control the kinase reaction was carried out in the absence of a test substance. As an internal control 30 μM and 300 μM (final concentration) of the kinase inhibitor olomoucin (Alexis) were used. […] The kinase reaction is started by the addition of 10 μl of ATP mix (0.045 mM ATP, 0.5 μCi ^33P-ATP in kinase buffer) and incubated for 30 min at 30° C. and 600 rpm in a shaking incubator. After incubation the plates were placed on ice and the proteins were precipitated by the addition of 125 μl of ice-cold 5% trichloroacetic acid. After 15 min on ice the precipitates were transferred onto Packard Unifilter 96 GF/B plates with the Packard Harvester System, and collected by vacuum filtration. The precipitates were washed 4 times with dist. H2O at ambient temperature. The filter plates were then dried at 60° C. and 50 μl of scintillation liquid were added to each well (Ultima Gold, Packard). The plate was sealed up with Sealing Tape and after 1 h measured in a scintillation measuring apparatus (Micro Beta made by Wallac).
In turn, `CN1CCC(CNc2nc(Nc3ccc(Cl)c(Cl)c3)ncc2C(F)(F)F)CC1` [Example 1(030)] registered an IC50 of less than 0.1 µM.

Still in this test, the particulars now being: CDK1 tests (Example 13); recombinant cyclin B1/CDK1, substrate histone H1; read-out: CDK1/cyclinB1 IC50 value.
Turning to `CC(=O)NCCNc1nc(Nc2cccc(Br)c2)ncc1C(F)(F)F` [Example 2(012), 2-(3-bromo-phenylamino)-4-(2-acetylamino-ethylamino)-5-trifluoromethyl-pyrimidine], the IC50 was less than 0.1 µM.

On to `CC(=O)NCCNc1nc(Nc2ccc(S(=O)(=O)C(C)C)cc2)ncc1C(F)(F)F` [Example 1(692), N-(2-{2-[4-(propane-2-sulphonyl)-phenylamino]-5-trifluoromethyl-pyrimidin-4-ylamino}-ethyl)-acetamide], for which the IC50 is less than 0.1 µM.

For the compound `NS(=O)(=O)c1ccc(Nc2ncc([N+](=O)[O-])c(NCCCN3CCCC3=O)n2)cc1` [Example 1(008), 2-(4-aminosulphonyl-phenylamino)-4-(3-(2-oxo-pyrrolidin-1-yl)-propyl-1-amino)-5-nitro-pyrimidine], the IC50 is less than 0.1 µM.

As for `CC(=O)NCCNc1nc(Nc2cccc(S(=O)(=O)N(C)C)c2)ncc1C(F)(F)F` [Example 1(651), N-{2-[2-(3-dimethylsulphamoyl-phenylamino)-5-trifluoromethyl-pyrimidin-4-ylamino]-ethyl}-acetamide], the IC50 was less than 0.1 µM.

`FC(F)(F)c1cnc(Nc2ccc(Cl)c(Cl)c2)nc1NCCN1CCOCC1` [Example 1(104), 2-(3,4-dichloro-phenylamino)-4-(2-morpholino-1-ethylamino)-5-trifluoromethyl-pyrimidine]: the IC50 was less than 0.1 µM.

Consider `FC(F)(F)c1cnc(Nc2cc(Cl)cc(Cl)c2)nc1N1CCc2[nH]cnc2C1` [Example 1(014), 2-(3,5-dichlorophenylamino)-4-(1,4,6,7-tetrahydro-imidazo[4,5-c]pyridin-5-yl)-5-trifluoromethyl-pyrimidine], for which the IC50 was less than 0.1 µM.

Regarding `FC(F)(F)c1cnc(Nc2ccc(Br)cc2)nc1N1CCc2[nH]cnc2C1` [Example 1(019), 2-(4-bromo-phenylamino)-4-(1,4,6,7-tetrahydro-imidazo[4,5-c]pyridin-5-yl)-5-trifluoromethyl-pyrimidine], the IC50 was less than 0.1 µM.

On to `CC(=O)NCC1CCCN(c2nc(Nc3ccc(Cl)c(Cl)c3)ncc2C(F)(F)F)C1` (stereo not shown) [Example 1(040), 2-(3,4-dichloro-phenylamino)-4-(3-acetylaminomethyl-piperidin-1-yl)-5-trifluoromethyl-pyrimidine], for which the IC50 is less than 0.1 µM.

Consider `COCCNc1nc(Nc2ccc(Cl)c(Cl)c2)ncc1C(F)(F)F` [Example 1(093), 2-(3,4-dichloro-phenylamino)-4-(2-methoxy-1-ethylamino)-5-trifluoromethyl-pyrimidine], for which the IC50 was less than 0.1 µM.

As for `C#Cc1cnc(Nc2ccc(S(=O)(=O)N(C)C)cc2)nc1NCCNC(C)=O` [Example 4(001), N-{2-[2-(4-dimethylsulphamoyl-phenylamino)-5-ethynyl-pyrimidin-4-ylamino]-ethyl}-acetamide], the IC50 is less than 0.1 µM.

For the compound `CC(=O)NCCNc1nc(Nc2ccccc2)ncc1C(F)(F)F` [Example 2(062), N-[2-(2-phenylamino-5-trifluoromethylpyrimidin-4-ylamino)-ethyl]-acetamide], the IC50 is less than 0.1 µM.

With `O=C(O)CCc1ccc(Nc2ncc(C(F)(F)F)c(NCCc3cccc(O)c3)n2)cc1` [Example 1(046), 2-(4-(2-carboxy-1-ethyl)-phenylamino)-4-(2-(3-hydroxyphenyl)-1-ethyl-amino)-5-trifluoromethyl-pyrimidine], the IC50 was less than 0.1 µM.

For `O=C1CCCN1CCCNc1nc(Nc2ccc3ccccc3c2)ncc1C(F)(F)F` [Example 1(003), 2-(2-naphthylamino)-4-(3-(2-oxo-pyrrolidin-1-yl)-propyl-1-amino)-5-trifluoromethyl-pyrimidine], the IC50 is less than 0.1 µM.

`CC(C)CC(=O)NCCCNc1nc(Nc2ccc3cnn(C)c3c2)ncc1C(F)(F)F` [Example 7(015), 3-methyl-N-{3-[2-(1-methyl-1H-indazol-6-ylamino)-5-trifluoromethyl-pyrimidin-4-ylamino]-propyl}-butyramide]: the IC50 was less than 0.1 µM.

With `CC(=O)NCC(C)(C)Nc1nc(Nc2ccc(S(=O)(=O)N3CCOCC3)cc2)ncc1C(F)(F)F` [Example 1(585), N-(2-Methyl-2-{2-[4-(morpholin-4-sulphonyl)-phenylamino]-5-trifluoromethyl-pyrimidin-4-ylamino}-propyl)-acetamide], the IC50 was less than 0.1 µM.

Take `CN(C)S(=O)(=O)c1ccc(Nc2ncc(C(F)(F)F)c(NCCN3CCCC3=O)n2)cc1` [Example 1(683), N,N-dimethyl-4-{4-[2-(2-oxo-pyrrolidin-1-yl)-ethylamino]-5-trifluoromethyl-pyrimidin-2-ylamino}-phenylsulphonamide]: the IC50 was less than 0.1 µM.

In the case of `CC(=O)NCCNc1nc(Nc2cccc(NS(=O)(=O)c3ccccc3)c2)ncc1C(F)(F)F` [Example 10(015), N-(2-[2-(3-phenylsulphonylamido-phenylamino)-5-trifluoromethyl-pyrimidin-4-ylamino]-ethyl)-acetamide], the IC50 was less than 0.1 µM.

For `CC(=O)NCCNc1nc(Nc2ccc(C(=O)N(C)C)c(Cl)c2)ncc1C(F)(F)F` [Example 8(007), 4-[4-(2-acetylamino-ethylamino)-5-trifluoromethyl-pyrimidin-2-ylamino]-2-chloro-N,N-dimethyl-benzamide], the IC50 is less than 0.1 µM.

Consider `Brc1cnc(Nc2ccc3cn[nH]c3c2)nc1N1CCc2[nH]cnc2C1` [Example 2(142), [5-Bromo-4-(1,4,6,7-tetrahydro-imidazo[4,5-c]pyridin-5-yl)-pyrimidin-2-yl]-(1H-indazol-6-yl)-amine], for which the IC50 was less than 0.1 µM.

`CC(=O)NCCNc1nc(Nc2ccc(NS(=O)(=O)c3ccccc3)cc2)ncc1C(F)(F)F` [Example 10(016), N-(2-[2-(4-phenylsulphonylamido-phenylamino)-5-trifluoromethyl-pyrimidin-4-ylamino]-ethyl)-acetamide]: the IC50 was less than 0.1 µM.

Take `CC(=O)NCCNc1nc(Nc2ccc(Br)cc2)ncc1C(F)(F)F` [Example 2(007), 2-(4-bromophenylamino)-4-(2-acetylamino-ethylamino)-5-trifluoromethyl-pyrimidine]: the IC50 is less than 0.1 µM.

Consider `O=C(O)c1ccc(Nc2ncc([N+](=O)[O-])c(N3CCc4[nH]cnc4C3)n2)cc1` [Example 1(029), 2-(4-carboxy-phenylamino)-4-(1,4,6,7-tetrahydro-imidazo[4,5-c]pyridin-5-yl)-5-nitro-pyrimidine], for which the IC50 is less than 0.1 µM.

Take `CC(=O)NCCNc1nc(Nc2cccc(Cl)c2)ncc1C(F)(F)F` [Example 2(009), 2-(3-chloro-phenylamino)-4-(2-acetylamino-ethylamino)-5-trifluoromethyl-pyrimidine]: the IC50 is less than 0.1 µM.

As to `O=[N+]([O-])c1cccc(Nc2ncc([N+](=O)[O-])c(N3CCCC(CO)C3)n2)c1` (stereo not shown) [Example 1(050), 2-(3-nitro-phenylamino)-4-(3-hydroxymethyl-piperidin-1-yl)-5-nitro-pyrimidine], the IC50 was less than 0.1 µM.

Consider `FC(F)(F)c1cnc(Nc2cccc(Cl)c2)nc1N1CCc2[nH]cnc2C1` [Example 1(005), 2-(3-chlorophenylamino)-4-(1,4,6,7-tetrahydro-imidazo[4,5-c]pyridin-5-yl)-5-trifluoromethyl-pyrimidine], for which the IC50 was less than 0.1 µM.

For the compound `O=C1CCCN1CCCNc1nc(Nc2ccc(-c3nn[nH]n3)cc2)ncc1C(F)(F)F` [Example 2(076), 1-(3-{2-[4-(2H-tetrazol-5-yl)-phenylamino]-5-trifluoromethyl-pyrimidin-4-ylamino}-propyl)-pyrrolidin-2-one], the IC50 was less than 0.1 µM.

For `CN(C)C1CCC(Nc2nc(Nc3ccc(Cl)c(Cl)c3)ncc2C(F)(F)F)CC1` (stereo not shown) [Example 1(120), 2-(3,4-dichlorophenylamino)-4-(4-dimethylamino-cyclohexylamino)-5-trifluoromethyl-pyrimidine], the IC50 was less than 0.1 µM.

As for `CC(C)NC(=O)NCCCNc1nc(Nc2ccc3cnn(C)c3c2)ncc1C(F)(F)F` [Example 7(036), 1-isopropyl-3-{3-[2-(1-methyl-1H-indazol-6-ylamino)-5-trifluoromethyl-pyrimidin-4-ylamino]-propyl}-urea], the IC50 was less than 0.1 µM.

In the case of `NCCCCNc1nc(Nc2ccc(Cl)c(Cl)c2)ncc1C(F)(F)F` [Example 1(304), 2-(3,4-dichlorophenylamino)-4-(4-aminobutylamino)-5-trifluoromethyl-pyrimidine], the IC50 is less than 0.1 µM.

As to `CC(=O)NCCNc1nc(Nc2ccc(N(C)S(C)(=O)=O)cc2)ncc1C(F)(F)F` [Example 2(011), 2-(4-(N-Methyl-N-methylsulphonyl)amino-phenylamino)-4-(2-acetylamino-ethylamino)-5-trifluoromethyl-pyrimidine], the IC50 is less than 0.1 µM.
